# Assay results published in US10076576B2, “Minimally toxic prodrugs” (priority 2012, dated 2018).
# Like-named read-outs stand apart in the source and are kept apart here.
# Columns and labels:
# [1] = test system: MX-1 mammary carcinoma human xenografts; experiment: Efficacy after repeated iv bolus, MX-1 xenograft; type: in vivo, NMRI nude mice; conditions: day 29
# Description: FIG. 3. […] Results represent the mean body weight and tumor volume evolution±SEM (n=4).
# The anti-tumor activity of doxorubicin and PhAc-ALGP-Dox was tested in models of athymic mice (nude/nude NMRI) carrying ectopic xenografts of human LS-174T colon carcinoma or MX-1 mammary carcinoma.
# LS174T and MX-1 tumors were established by a subcutaneous implantation of cells (3×10^6 and 10^7 cells injected respectively) in the right flank of 6 weeks old female NMRI nude mice (Harlan). […] The day of the first injection animals were randomly assigned to groups of 4 animals. […] Compounds were delivered by bolus intravenous injection (i.v.) in the lateral tail vein at 10 μl/g. During the course of the experiment, clinical signs, body weight and tumor volume were controlled twice a week. Results are presented as the evolution of mean tumor volume as a function of time. Optimal T/C (ratio of mean tumor volume of treated versus control mice) values were used as a measure of treatment efficacy.
# in vivo [2] = conditions: female, OF-1, mouse, iv, 86.2 umol/kg
# Description: Time evolution of plasma concentration (A, B) and of cardiac tissue concentration (C, D) of Doxorubicin or PhAc-ALGP-Dox and its metabolites after i.v. bolus injection to OF-1 female wild type mice at the dose of 86.2 μmol/kg. Results represent the mean concentration±SD (n=3).
# Pharmacokinetic tissue distribution studies were performed using OF-1 mice. […] At different time points after drug administration (5 min, 30 min, 1 h, 4 h, 7 h, 16 h and 24 h) 3 mice per group were sacrificed by cervical dislocation and blood and heart tissue were collected. Hearts were incised and rinsed carefully in phosphate buffer saline (to eliminate blood in the cardiac cavities), dried on paper and frozen in liquid nitrogen. They were stored until analysis. Blood samples were centrifuged (10 min, 2000 g, 4° C.) to separate the plasma fraction, which was stored for analysis. The hearts were homogenized with an Ultraturrax homogenizer in 1.5 mL water. The protein concentration was measured using the microBCA protein assay (Pierce). The drug tissue quantification was made by HPLC after extraction: 150 μL of acetonitrile was added to the 50 μL samples. Samples were vortexed and centrifuged for 10 min at 13 000 rpm at room temperature. Supernatant was collected. Samples were buffered by addition of 200 mM formiate buffer pH 4.5 (1 V sample supernatant+3 V buffer) before HPLC analysis (fluo detection ex=235 nm em=560 nm).
# in vivo [3] = conditions: female, OF-1, mouse, ip, 92 umol/kg
# Description: (§2) Time evolution of blood concentration of PhAc-ALGP-Dox and its metabolites (A) or of Doxorubicin (B) after intraperitoneal injection to OF-1 female wild type mice at the equimolar dose of 92 μmol/kg. Results represent the mean concentration±SD (n=3).
# (§3) Pharmacokinetic tissue distribution studies were performed using OF-1 mice. Doxorubicin and PhAc-ALGP-Dox were dissolved in saline at the dose of 9.2 mM and administered to mice by intraperitoneal route (10 μL/g, 6 mice per group). At different time points after drug administration (5 min, 30 min, 1 h, 4 h, and 24 h), blood samples were collected from the lateral tail vein of three mice using EDTA-coated microtubes (Starsted). After 24 h, 3 mice per group were sacrificed by cervical dislocation and hearts were collected. They were incised and rinsed carefully in phosphate buffer saline (to eliminate blood in the cardiac cavities), dried on paper and frozen in liquid nitrogen. They were stored until analysis. The hearts were homogenized with an Ultraturrax homogenizer in 1.5 mL water. The protein concentration was measured using the microBCA protein assay (Pierce). The drug tissue quantification was made by HPLC after extraction: 150 μL of acetonitrile was added to the 50 μL samples. Samples were vortexed and centrifuged for 10 min at 13 000 rpm at room temperature. Supernatant was collected. Samples were buffered by addition of 200 mM formiate buffer pH 4.5 (1 V sample supernatant+3 V buffer) before HPLC analysis (fluo detection ex=235 nm em=560 nm).
# [4] = type: in vivo, CD1 mice
# Description: FIG. 12. Evaluation of PhAc-ALGP-Dox leucopenic effect in comparison with Doxorubicin. CD1 mice received twice daily intraperitoneal injections of PhAc-ALGP-Dox 35 μmol/kg (●) or of Doxorubicin 3.5 μmol/kg (▪) for five consecutive days. The mice body weight evolution was recorded (A). Blood was collected from the tail vein in heparinised Microvettes tubes (Starsted) at day 4, 11 and 15 after treatment initiation. Peripheral white blood cells (WBC) were counted using the SCILvet abc hematologic analyzer (B). The increase or decrease in WBC is expressed as a percentage of WBC on day 0 (100%) for each mouse. The curves show evolution of the mean percentages.
# The leucopenic effects of PhAc-ALGP-Dox (35 μmol/kg ip) and of Doxorubicin (3.5 μmol/kg ip) were compared in two independent experiments. CD1 mice received two daily intraperitoneal injections of drugs for five consecutive days (total 10 injections/mouse; 2×5 animals per group). The mice body weight evolution was recorded. Blood was collected from the tail vein in EDTA-coated Microvettes tubes (Starsted) at day 4, 11 and 15 after treatment initiation. White blood cells (WBC) were counted using the SCILvet abc hematologic analyzer. The increase or decrease in WBC was expressed as a percentage of WBC on day 0 (100%) for each mouse.
# [5] = test system: Cor.At® cells (mouse embryonic stem cell derived cardiomyocytes); experiment: In vitro cytotoxicity on Cor.At cardiomyocytes (neutral red uptake); type: cell-based; conditions: 48 h
# Description: FIG. 5. In vitro cellular toxicity of PhAc-ALGP-Dox and Doxorubicin on Cor.At® cells (mouse embryonic stem cell derived cardiomyocytes). As non-specific control, the test was also performed on inactivated mouse embryonic fibroblasts (MEF). Cells were cultured for 48 h in the presence of drugs and a neutral red uptake test was performed to determine cell viability. Results represent the cytotoxicity curves. The IC50 values were calculated from the cytotoxicity curves using the Prism GraphPad software 5.0.
# The in vitro cardiotoxicity test was carried out in a relevant and predictive in vitro model for cardiac safety screening in early lead optimization using mouse embryonic stem cell derived cardiomyocytes (Cor.At®, Axiogenesis (Germany)). Cor.At® cardiomyocytes provide a standardized, homogenous and reproducible cell system for the in vitro classification of a compound's cardio-cytotoxic potential. After incubation with test compounds, the neutral red uptake test was used to determine effects which directly affect the viability and integrity of cardiac cells when compared to a non-specific reference cell type, e.g. mouse fibroblasts (MEF).
# [6] = test system: UZLX-STS3 dedifferentiated liposarcoma xenograft
# Description: FIG. 16. Effect of PhAc-ALGP on a UZLX-STS3 xenograft model. UZLX-STS3 is a tissue xenograft derived from a patient diagnosed with dedifferentiated liposarcoma (DDLPS).
# A total of 24 mice were bilaterally transplanted with UZLX-STS3 (tissue xenografts of passage 10). Animals were randomly assigned to three different groups: a control group (saline; -●-); A PhAc-ALGP-doxorubicin group (cumulative dose 1.20 mmol/kg; -▪-) and a doxorubicin group (cumulative dose 0.03 mmol/kg; -▴-). The drugs were administered intraperitoneally during 7 days by continuous release via an Alzet® osmotic pump, with delivery rate of 0.5 μl/h over 7 days. The experiment lasted 21 days (7 days of treatment+14 days of observation). Tumor volume and mouse body weight were evaluated at baseline and subsequently three times per week until the end of each experiment. After 21 days mice were sacrificed. Tumor volume is recorded 3× weekly by 3-dimensional caliper measurement. Data are presented as the average of the relative tumor volumes per group±standard deviation.
# The comparison between the tumor volumes on day zero and the volumes on the last day of the experiments was done by Wilcoxon's matched paired test. The comparisons between different groups were performed using the Mann-Whitney U test (relative tumor volumes, histologic assessment). […] The […] software (StatSoft, version 12.0) was used for all the calculations.
# (§1) FIG. 18. Data are presented as the average of the white blood cell count of mice in every group±standard deviation. The dashed lines mark the reference values for nu/nu NMRI mouse strain. PhAc-ALGP-doxorubicin (-▪-); Dox (-▴-); and saline (-●-). Total white blood cell count was determined using the CELL-DYN 3500 multiparameter automated hematology analyzer with optimization for murine blood parameters (Abott Diagnostics, Division, Ill., USA)
# as §1, with “19.” for “18.”, “neutrophil” for “white blood cell”, “Neutrophil” for “Total white blood cell”
# [7] = Pharmacokinetics and heart quantification after single ip injection; conditions: for Dox concentration in heart after 24 h: ip 92 μmol/kg of the labelled drug, ± SD
# Description: as §2, §3
Structure (SMILES),"TGI [% (day)] ([1]; 8 μmol/kg iv day 0, 3, 6, 9)",AUC (in vivo [2]),AUC (in vivo [3]),"mortality ([4]; 3.5 μmol/kg ip 2Q1D5, 2×5 animals)",viability of Cor.At cardiomyocytes ([5]; 0.2 μg/ml),toxic effect on Cor.At cardiomyocytes (in words) ([5]; 20 μg/ml and 2 μg/ml),"relative tumor volume at day 21 ([6]; ip, 30 umol/kg)",percentage of the injected dose reaching the blood compartment in the first five minutes ([7]; ip 92 μmol/kg),Dox concentration in heart after 24 h [7],"TGI [% (day)] ([1]; 100 μmol/kg iv day 0, 3, 6, 9)",leucopenic effect and body weight loss (in words) ([4]; 35 μmol/kg ip 2Q1D5),toxic effect (in words) ([5]; all concentrations lower than 20 μg/ml),neutrophil count (in words) ([6]; 21 days after administration at 40-times higher dose than free doxorubicin),"relative tumor volume at day 21 ([6]; cumulative dose 1.20 mmol/kg ip via osmotic pump over 7 days, day 0 = 100%)","total white blood cells and neutrophils (in words) ([6]; cumulative dose 1.20 mmol/kg, versus control or doxorubicin-treated animals)",time after which the conjugate was no longer detected in blood ([7]; ip 92 μmol/kg),"Doxorubicin cardiac accumulation versus Doxorubicin injection (times less) ([7]; ip 92 μmol/kg equimolar, 24 h)"
"COc1cccc2c1C(=O)c1c(O)c3c(c(O)c1C2=O)C[C@@](O)(C(=O)CO)C[C@@H]3O[C@H]1C[C@H](N)[C@H](O)[C@H](C)O1 [Doxorubicin, reference compound]",65 (29) %,63 µM·h,70.3 µM·h,one mouse was found dead at day 11 as well as 3 mice at day 15,67%,severe toxic effect,246%,about 2.5%,253 ± 60 pmol/mg protein,–,–,–,–,–,–,–,–
"COc1cccc2c1C(=O)c1c(O)c3c(c(O)c1C2=O)CC(O)(C(=O)CO)CC3OC1CC(NC(=O)C2CCCN2C(=O)CNC(=O)C(CC(C)C)NC(=O)C(C)NC(=O)CP(=O)(O)O)C(O)C(C)O1 (stereo not drawn) [PhAc-ALGP-Dox, PhAc-ALGP-doxorubicin]",–,97 µM·h,44.2 µM·h,–,–,–,–,about 1%,13 ± 3 pmol/mg protein,60 (29) %,No leucopenic effect and body weight loss,did not show any toxic effect,unchanged netrophil count,105%,No major changes,4 h,19 times
